“And” between values parts separate entries of the source, which are not always exact repeats. Equal values may be shown once. Read-outs that look alike come from different tables or passages of the source.
Legend:
[1] = test system: Plasmodium falciparum strain 3D7; experiment: Antimalarial activity, whole-cell SYBR Green I assay; assay type: cell-based; conditions: read-out: Antimalarial activity (IC50) Mean
Procedure: Antimalarial activity of compounds IIa and IIb can be accessed by exposing a P. falciparum strain (see Example 5), such as strain 3D7, which is chloroquine and mefloquine sensitive, to said compounds, and by using the SYBR Green I assay as described in Machado et. al, Ann. Clin. Med. Microbio. 2016, 2, 1010. Asynchronous parasites are cultivated for 72 hours in the presence of each compound. Fluorescence intensity was measured with a multi-mode microplate reader (Triad, Dynex Technologies). Compounds IIa and IIb were active against the malaria parasite (see Example 5, Table 1). Compounds were dissolved in RPMI-1640 with L-glutamine (BiowestTM) supplemented with […] (GibcoTM), herein after referred to as RPMIc, to obtain an intermediate solution of 100 μM. Laboratory-adapted P. falciparum strain 3D7, a chloroquine and mefloquine sensitive strain, was continuously cultured as described elsewhere (Machado et. al, Ann. Clin. Med. Microbio. 2016, 2, 1010). Parasites were cultivated in 5% haematocrit, 37° C. and atmosphere with 5% of CO2. […] (GibcoTM) at 0.5% was used as a substitute of human serum in the culture medium. Staging and parasitemia were determined by light microscopy of Giemsa-stained thin blood smears. Anti-malarial activity was determined using the SYBR Green I assay (Machado et. al, Ann. Clin. Med. Microbio. 2016, 2, 1010 and Lobo et. al, […]. 2018, 17, 1). Briefly, asynchronous parasites were cultivated for 72 hours in the presence of a 1:3 serial dilution of each compound.

[2] = test system: PC3 human prostate adenocarcinoma; experiment: Antitumoral effect, MTS metabolism assay, PC3; assay type: cell-based; conditions: 72 hours
U251 human glioblastoma = experiment: Antitumoral effect, MTS metabolism assay, U251; assay type: cell-based; conditions: U-251, 72 hours
[3] = test system: MCF7 human breast adenocarcinoma; experiment: Antitumoral effect, MTS metabolism assay, MCF7; assay type: cell-based; conditions: 72 hours
[4] = test system: AML12 murine immortalized hepatocyte cell line; experiment: Toxicity for non-tumoral cells, MTS assay, AML12; assay type: cell-based; conditions: for IC50: Mus musculus, non-tumorigenic cell line, 72 hours, MTS; for Selectivity (IC50Compound II/IC50 Doxorubicin): ratio to doxorubicin
[5] = test system: HCT116 human colorectal carcinoma; experiment: Antitumoral effect, MTS metabolism assay, HCT116; assay type: cell-based; conditions: HCT-116, 72 hours
HT-29 cells = conditions: 2 mg/kg intravenous, eight injections
[6] = Fluorescence quantum yields determination; assay type: physicochemical; conditions: water with 30% DMSO; standard fluorescein in 0.1 M sodium hydroxide
[7] = chloroquine-sensitive 3D7 strain, asynchronous parasites, 72 hours

SMILES: CCN(CC)CCCC(C)Nc1ccnc2cc(Cl)ccc12 (stereo not shown) [CQ, chloroquine, reference compound]
- IC50 ([1]; 3D7, 72 h): 0.0194 µM

SMILES: COc1cc(NC(C)CCCNC(=O)OC2CCCC3(C2)OOC2(OO3)C3CC4CC(C3)CC2C4)c2ncccc2c1 (stereo not shown) [Compound IIa]
- IC50 [1, 7]: 0.0328 µM

SMILES: CC(C)(C)OC(=O)N1CCN(C(=O)OC2CCCC3(C2)OOC2(OO3)C3CC4CC(C3)CC2C4)CC1 (stereo not shown) [Compound IIb]
- IC50 [1, 7]: 0.0114 µM

SMILES: COc1cccc2c1C(=O)c1c(O)c3c(c(O)c1C2=O)C[C@](O)(C(=O)CO)C[C@H]3O[C@@H]1CC(NC(=O)OCC2=CCCCC23OOC2(OO3)C3CC4CC2CC(O)(C4)C3)[C@@H](O)[C@@H](C)O1 (stereo partly shown) [Compound IIe]
- IC50 [2]: 14.3 µM
- IC50 (U251 human glioblastoma): 13.2 µM
- IC50 [3]: 8.45 µM
- IC50 [4]: 30.5 µM
- Selectivity (IC50Compound II/IC50 Doxorubicin) [4]: 180 and 179
- IC50 [5]: 3.52 µM

SMILES: COc1cccc2c1C(=O)c1c(O)c3c(c(O)c1C2=O)C[C@@](O)(C(=O)CO)C[C@@H]3O[C@H]1C[C@H](N)[C@H](O)[C@H](C)O1 [Doxorubicin, doxorubicin, reference compound]
- IC50 [2]: 0.12 µM
- reduction of the tumour mass versus negative control and vehicle control (HT-29 cells): higher reduction of the tumour mass
- fluorescence quantum yield [6]: 2.8%
- IC50 (U251 human glioblastoma): 0.011 µM
- IC50 [3]: 0.17 µM
- IC50 [4]: 0.17 µM
- IC50 [5]: 0.05 µM

SMILES: COc1cccc2c1C(=O)c1c(O)c3c(c(O)c1C2=O)C[C@](O)(C(=O)CO)C[C@H]3O[C@@H]1CC(NC(=O)OC2CCCC3(C2)OOC2(OO3)C3CC4CC(C3)CC2C4)[C@@H](O)[C@@H](C)O1 (stereo partly shown) [IIc]
- IC50 [2]: 1.37 µM
- IC50 (U251 human glioblastoma): 0.25 µM
- IC50 [3]: 1.65 µM
- IC50 [4]: 1.83 µM
- Selectivity (IC50Compound II/IC50 Doxorubicin) [4]: 10 and 10.64
- IC50 [5]: 5.11 µM

Source: US20250064840A1, “DRUG DELIVERY SYSTEMS BASED ON ENDOPEROXIDES USEFUL IN DIAGNOSIS AND THERAPY, AND METHODS THEREOF” (FACULDADE DE FARMÁCIA DA UNIVERSIDADE DE LISBOA, priority 2021, published 2025)
